Tests used:
9 L gliosarcoma tumor = test: Biodistribution in Fischer rats with intracranial 9 L gliosarcoma tumor; format: in vivo; conditions: for Tissue distribution of radioactivity, Blood / Tissue distribution of radioactivity, Bone / Tissue distribution of radioactivity, Heart / Tissue distribution of radioactivity, Kidney / Tissue distribution of radioactivity, Liver / Tissue distribution of radioactivity, Lung / Tissue distribution of radioactivity, Muscle / Tissue distribution of radioactivity, Pancreas / Tissue distribution of radioactivity, Spleen / Tissue distribution of radioactivity, Testis / Tissue distribution of radioactivity, Tumor / Tissue distribution of radioactivity, Brain: tumor-bearing Fischer rats; for Tissue distribution of radioactivity, Brain: normal brain contralateral to tumor
Method: Tumor induction and animal preparation. All animal experiments were carried out under humane conditions and were approved by the Institutional Animal Use and Care Committee (IUCAC) at Emory University. Rat 9 L gliosarcoma cells were implanted into the brains of male Fischer rats as described previously [Shoup, T M et al. (1999), J. Nucl. Med. 40:331-338]. Briefly, anesthetized rats placed in a stereotactic head holder were injected with a suspension of 4×10^4 rat 9 L gliosarcoma cells (1×10^7 per mL) in a location 3 mm right of midline and 1 mm anterior to the bregma at a depth of 5 mm deep to the outer table. The injection was performed over the course of 2 minutes, and the needle was withdrawn over the course of 1 minute to minimize the backflow of tumor cells. The burr hole and scalp incision were closed, and the animals were returned to their original colony after recovering from the procedure. Intracranial tumors developed that produced weight loss, apathy and hunched posture in the tumor-bearing rats, and the animals were used at 17-19 days after implantation. Of the 30 animals implanted with tumor cells, 25 developed tumors visible to the naked eye upon dissection and were used in the study.
The tissue distribution of radioactivity was also determined in tumor-bearing Fischer 344 rats following intravenous injection of ˜35 μCi of [^18F]5a or [^18F]5b in 0.3 mL of sterile water. The procedure was similar to that already described for normal rats with the following modifications. The tail vein injections were performed in awake animals using a RTV-190 rodent restraint device (Braintree Scientific) to avoid mortality accompanying anesthesia in the presence of an intracranial mass. The animals were killed at 5 minutes, 60 minutes or 120 minutes post-injection. The same tissues were assayed as in normal rats with the addition of the tumor tissue, and the corresponding region of brain contralateral to the tumor was excised and used for comparison. The uptake in the tumor and contralateral brain at each time point was compared via a two-tailed t-test for paired observations (GraphPad Prism software package).

[1] = Rodent biodistribution study in normal Fischer rats; format: in vivo, rat; conditions: for Tissue distribution of radioactivity, Blood / Tissue distribution of radioactivity, Bone / Tissue distribution of radioactivity, Brain / Tissue distribution of radioactivity, Heart / Tissue distribution of radioactivity, Kidney / Tissue distribution of radioactivity, Liver / Tissue distribution of radioactivity, Lung / Tissue distribution of radioactivity, Muscle / Tissue distribution of radioactivity, Pancreas / Tissue distribution of radioactivity, Spleen / Tissue distribution of radioactivity, Testis: normal Fischer rats
Method: Rodent biodistribution studies. The same procedures were used to evaluate [^18F]5a and [^18F]5b separately in rodents. The tissue distribution of radioactivity was determined in 16 normal male Fischer 344 rats (200-250 g) after intravenous injection of ˜85 μCi of [^18F]5a or [^18F]5b in 0.3 mL of sterile water. The animals were allowed food and water ad libitum before the experiment. Following anesthesia induced with an intramuscular injection of 0.1 mL/100 g of a 1:1 ketamine ([…]):xylazine (20 mg/mL) solution, the radiolabeled amino acid was injected into the rats via tail vein catheters. Groups of four rats were killed at 5 minutes, 30 minutes, 60 minutes and 120 minutes after injection of the dose. The animals were dissected, and selected tissues were weighed and counted along with dose standards in a Packard Cobra II Auto-Gamma Counter. The raw counts were decay corrected, and the counts were normalized as the percent of total injected dose per gram of tissue (% ID/g). A comparison of the uptake of activity in the tissues at each time point was analyzed using a 1-way ANOVA (GraphPad Prism software package).

[2] = 5 min after injection, listed as [^18F]FAMP (5a)
[3] = 60 min after injection, listed as [^18F]FAMP (5a)
[4] = 120 min after injection, listed as [^18F]FAMP (5a)

SMILES: CC(N)(CF)C(=O)O (racemic) [[^18F]5a, 2-amino-3-fluoro-2-methylpropanoic acid]
- Tissue distribution of radioactivity, Blood (9 L gliosarcoma tumor; 5 min after injection): 0.72 ± 0.05 percent dose per gram
- Tissue distribution of radioactivity, Bone (9 L gliosarcoma tumor; 5 min after injection): 0.38 ± 0.04 percent dose per gram
- Tissue distribution of radioactivity, Heart (9 L gliosarcoma tumor; 5 min after injection): 0.40 ± 0.04 percent dose per gram
- Tissue distribution of radioactivity, Kidney (9 L gliosarcoma tumor; 5 min after injection): 8.66 ± 1.27 percent dose per gram
- Tissue distribution of radioactivity, Liver (9 L gliosarcoma tumor; 5 min after injection): 0.77 ± 0.22 percent dose per gram
- Tissue distribution of radioactivity, Lung (9 L gliosarcoma tumor; 5 min after injection): 0.84 ± 0.03 percent dose per gram
- Tissue distribution of radioactivity, Muscle (9 L gliosarcoma tumor; 5 min after injection): 0.39 ± 0.02 percent dose per gram
- Tissue distribution of radioactivity, Pancreas (9 L gliosarcoma tumor; 5 min after injection): 5.31 ± 0.68 percent dose per gram
- Tissue distribution of radioactivity, Spleen (9 L gliosarcoma tumor; 5 min after injection): 0.72 ± 0.06 percent dose per gram
- Tissue distribution of radioactivity, Testis (9 L gliosarcoma tumor; 5 min after injection): 0.22 ± 0.02 percent dose per gram
- Tissue distribution of radioactivity, Tumor (9 L gliosarcoma tumor; 5 min after injection): 0.91 percent dose per gram
- Tissue distribution of radioactivity, Tumor (9 L gliosarcoma tumor; [2]): 0.91 ± 0.05 percent dose per gram
- Tissue distribution of radioactivity, Blood (9 L gliosarcoma tumor; 60 min after injection): 0.26 ± 0.03 percent dose per gram
- Tissue distribution of radioactivity, Bone (9 L gliosarcoma tumor; 60 min after injection): 0.25 ± 0.05 percent dose per gram
- Tissue distribution of radioactivity, Heart (9 L gliosarcoma tumor; 60 min after injection): 0.33 ± 0.06 percent dose per gram
- Tissue distribution of radioactivity, Kidney (9 L gliosarcoma tumor; 60 min after injection): 6.20 ± 1.45 percent dose per gram
- Tissue distribution of radioactivity, Liver (9 L gliosarcoma tumor; 60 min after injection): 0.66 ± 0.16 percent dose per gram
- Tissue distribution of radioactivity, Lung (9 L gliosarcoma tumor; 60 min after injection): 0.38 ± 0.04 percent dose per gram
- Tissue distribution of radioactivity, Muscle (9 L gliosarcoma tumor; 60 min after injection): 0.31 ± 0.03 percent dose per gram
- Tissue distribution of radioactivity, Pancreas (9 L gliosarcoma tumor; 60 min after injection): 2.86 ± 0.34 percent dose per gram
- Tissue distribution of radioactivity, Spleen (9 L gliosarcoma tumor; 60 min after injection): 0.55 ± 0.08 percent dose per gram
- Tissue distribution of radioactivity, Testis (9 L gliosarcoma tumor; 60 min after injection): 0.14 ± 0.02 percent dose per gram
- Tissue distribution of radioactivity, Tumor (9 L gliosarcoma tumor; 60 min after injection): 1.96 percent dose per gram
- Tissue distribution of radioactivity, Tumor (9 L gliosarcoma tumor; [3]): 1.96 ± 0.10 percent dose per gram
- Tissue distribution of radioactivity, Blood (9 L gliosarcoma tumor; 120 min after injection): 0.16 ± 0.01 percent dose per gram
- Tissue distribution of radioactivity, Bone (9 L gliosarcoma tumor; 120 min after injection): 0.16 ± 0.01 percent dose per gram
- Tissue distribution of radioactivity, Heart (9 L gliosarcoma tumor; 120 min after injection): 0.22 ± 0.02 percent dose per gram
- Tissue distribution of radioactivity, Kidney (9 L gliosarcoma tumor; 120 min after injection): 3.64 ± 0.26 percent dose per gram
- Tissue distribution of radioactivity, Liver (9 L gliosarcoma tumor; 120 min after injection): 0.25 ± 0.02 percent dose per gram
- Tissue distribution of radioactivity, Lung (9 L gliosarcoma tumor; 120 min after injection): 0.24 ± 0.03 percent dose per gram
- Tissue distribution of radioactivity, Muscle (9 L gliosarcoma tumor; 120 min after injection): 0.21 ± 0.01 percent dose per gram
- Tissue distribution of radioactivity, Pancreas (9 L gliosarcoma tumor; 120 min after injection): 1.42 ± 0.17 percent dose per gram
- Tissue distribution of radioactivity, Spleen (9 L gliosarcoma tumor; 120 min after injection): 0.32 ± 0.02 percent dose per gram
- Tissue distribution of radioactivity, Testis (9 L gliosarcoma tumor; 120 min after injection): 0.11 ± 0.003 percent dose per gram
- Tissue distribution of radioactivity, Tumor (9 L gliosarcoma tumor; 120 min after injection): 1.87 percent dose per gram
- Tissue distribution of radioactivity, Tumor (9 L gliosarcoma tumor; [4]): 1.87 ± 0.2 percent dose per gram
- Tissue distribution of radioactivity, Brain (9 L gliosarcoma tumor; 5 min after injection): 0.035 ± 0.002 percent dose per gram
- Tissue distribution of radioactivity, Brain (9 L gliosarcoma tumor; 60 min after injection): 0.054 percent dose per gram
- Tissue distribution of radioactivity, Brain (9 L gliosarcoma tumor; [3]): 0.054 ± 0.01 percent dose per gram
- Tissue distribution of radioactivity, Brain (9 L gliosarcoma tumor; 120 min after injection): 0.050 percent dose per gram
- Tissue distribution of radioactivity, Brain (9 L gliosarcoma tumor; [4]): 0.050 ± 0.004 percent dose per gram
- uptake in normal brain tissue contralateral to the tumor (9 L gliosarcoma tumor; tumor-bearing rats, each time point (5, 60, 120 minutes)): approximately 0.05 % ID/g
- Tissue distribution of radioactivity, Blood ([1]; 5 min after injection): 0.53 ± 0.03 percent dose per gram
- Tissue distribution of radioactivity, Bone ([1]; 5 min after injection): 0.27 ± 0.005 percent dose per gram
- Tissue distribution of radioactivity, Brain ([1]; 5 min after injection): 0.04 ± 0.003 percent dose per gram
- Tissue distribution of radioactivity, Heart ([1]; 5 min after injection): 0.29 ± 0.012 percent dose per gram
- Tissue distribution of radioactivity, Kidney ([1]; 5 min after injection): 6.36 percent dose per gram
- Tissue distribution of radioactivity, Liver ([1]; 5 min after injection): 0.65 percent dose per gram
- Tissue distribution of radioactivity, Lung ([1]; 5 min after injection): 0.55 ± 0.006 percent dose per gram
- Tissue distribution of radioactivity, Muscle ([1]; 5 min after injection): 0.22 ± 0.013 percent dose per gram
- Tissue distribution of radioactivity, Pancreas ([1]; 5 min after injection): 3.46 percent dose per gram
- Tissue distribution of radioactivity, Spleen ([1]; 5 min after injection): 0.83 ± 0.05 percent dose per gram
- Tissue distribution of radioactivity, Testis ([1]; 5 min after injection): 0.17 ± 0.010 percent dose per gram
- Tissue distribution of radioactivity, Kidney [1, 2]: 6.36 ± 0.36 percent dose per gram
- Tissue distribution of radioactivity, Liver [1, 2]: 0.65 ± 0.05 percent dose per gram
- Tissue distribution of radioactivity, Pancreas [1, 2]: 3.46 ± 0.19 percent dose per gram
- Tissue distribution of radioactivity, Blood ([1]; 30 min after injection): 0.25 ± 0.014 percent dose per gram
- Tissue distribution of radioactivity, Bone ([1]; 30 min after injection): 0.22 ± 0.02 percent dose per gram
- Tissue distribution of radioactivity, Brain ([1]; 30 min after injection): 0.05 ± 0.004 percent dose per gram
- Tissue distribution of radioactivity, Heart ([1]; 30 min after injection): 0.29 ± 0.04 percent dose per gram
- Tissue distribution of radioactivity, Kidney ([1]; 30 min after injection): 5.59 ± 0.28 percent dose per gram
- Tissue distribution of radioactivity, Liver ([1]; 30 min after injection): 0.56 ± 0.04 percent dose per gram
- Tissue distribution of radioactivity, Lung ([1]; 30 min after injection): 0.54 ± 0.12 percent dose per gram
- Tissue distribution of radioactivity, Muscle ([1]; 30 min after injection): 0.22 ± 0.009 percent dose per gram
- Tissue distribution of radioactivity, Pancreas ([1]; 30 min after injection): 2.93 ± 0.20 percent dose per gram
- Tissue distribution of radioactivity, Spleen ([1]; 30 min after injection): 0.54 ± 0.03 percent dose per gram
- Tissue distribution of radioactivity, Testis ([1]; 30 min after injection): 0.10 ± 0.006 percent dose per gram
- Tissue distribution of radioactivity, Blood ([1]; 60 min after injection): 0.22 ± 0.02 percent dose per gram
- Tissue distribution of radioactivity, Bone ([1]; 60 min after injection): 0.19 ± 0.03 percent dose per gram
- Tissue distribution of radioactivity, Brain ([1]; 60 min after injection): 0.06 ± 0.004 percent dose per gram
- Tissue distribution of radioactivity, Heart ([1]; 60 min after injection): 0.28 ± 0.013 percent dose per gram
- Tissue distribution of radioactivity, Kidney ([1]; 60 min after injection): 4.74 ± 0.15 percent dose per gram
- Tissue distribution of radioactivity, Liver ([1]; 60 min after injection): 0.50 ± 0.013 percent dose per gram
- Tissue distribution of radioactivity, Lung ([1]; 60 min after injection): 0.44 ± 0.05 percent dose per gram
- Tissue distribution of radioactivity, Muscle ([1]; 60 min after injection): 0.26 ± 0.02 percent dose per gram
- Tissue distribution of radioactivity, Pancreas ([1]; 60 min after injection): 2.95 ± 0.27 percent dose per gram
- Tissue distribution of radioactivity, Spleen ([1]; 60 min after injection): 0.50 ± 0.04 percent dose per gram
- Tissue distribution of radioactivity, Testis ([1]; 60 min after injection): 0.12 ± 0.006 percent dose per gram
- Tissue distribution of radioactivity, Blood ([1]; 120 min after injection): 0.15 ± 0.005 percent dose per gram
- Tissue distribution of radioactivity, Bone ([1]; 120 min after injection): 0.13 ± 0.012 percent dose per gram
- Tissue distribution of radioactivity, Brain ([1]; 120 min after injection): 0.05 ± 0.001 percent dose per gram
- Tissue distribution of radioactivity, Heart ([1]; 120 min after injection): 0.23 ± 0.03 percent dose per gram
- Tissue distribution of radioactivity, Kidney ([1]; 120 min after injection): 2.97 percent dose per gram
- Tissue distribution of radioactivity, Liver ([1]; 120 min after injection): 0.48 percent dose per gram
- Tissue distribution of radioactivity, Lung ([1]; 120 min after injection): 0.37 ± 0.10 percent dose per gram
- Tissue distribution of radioactivity, Muscle ([1]; 120 min after injection): 0.19 ± 0.003 percent dose per gram
- Tissue distribution of radioactivity, Pancreas ([1]; 120 min after injection): 2.48 percent dose per gram
- Tissue distribution of radioactivity, Spleen ([1]; 120 min after injection): 0.33 ± 0.02 percent dose per gram
- Tissue distribution of radioactivity, Testis ([1]; 120 min after injection): 0.10 ± 0.004 percent dose per gram
- Tissue distribution of radioactivity, Kidney [1, 4]: 2.97 ± 0.17 percent dose per gram
- Tissue distribution of radioactivity, Liver [1, 4]: 0.48 ± 0.03 percent dose per gram
- Tissue distribution of radioactivity, Pancreas [1, 4]: 2.48 ± 0.03 percent dose per gram
- uptake of radioactivity in heart, lung, bone, blood, muscle and testis ([1]; normal rats, 5 minutes): < 0.55 % ID/g
- brain uptake of radioactivity ([1]; normal rats, all time points): approximately 0.05 % ID/g
